Test results from patent publication US20150105252A1, “SUBSTITUTED PYRAZOLES AS HERBICIDES” (E I DU PONT DE NEMOURS AND COMPANY, priority 2013, published 2015).

Assays:
[1] = system: nutsedge, yellow; assay: Test C preemergence; format: in vivo, Cyperus esculentus
Summary of the method: (§1)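 Seeds were sown in a loam soil–sand blend and sprayed preemergence with compounds formulated in a non-phytotoxic solvent mixture containing surfactant. Postemergence plants, grown in peat/vermiculite medium to 2–18 cm (1- to 4-leaf stage), received the same formulation. After 13 to 15 days in a greenhouse, injury was rated visually against controls (0 = no effect, 100 = complete control).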

[2] = system: crabgrass, large; assay: Test C preemergence; format: in vivo, Digitaria sanguinalis
Summary of the method: as §1

[3] = system: morningglory; assay: Test A postemergence; format: in vivo, Ipomoea spp.; settings: Postemergence
Summary of the method: (§2)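 Seeds were sown in a loam soil–sand blend and given a directed soil spray preemergence; postemergence plants at 2–10 cm, one- to two-leaf stage, were sprayed with compound in non-phytotoxic solvent with surfactant. After about 10 days in a greenhouse, injury was visually rated against untreated controls (0 = no effect, 100 = complete control).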

[4] = system: ducksalad; assay: Test B flood; format: in vivo, Heteranthera limosa; settings: 250 g ai/ha, visual rating on 0 to 100 scale (0 no effect, 100 complete control), 13 to 15 days
Summary of the method: (§3)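 Visual ratings on a 0–100 scale, where 0 means no effect and 100 means complete control, were assigned by comparison with controls 13 to 15 days after treatment. Compounds went into paddy water over 2-leaf plants flooded to 3 cm.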

[5] = system: oilseed rape; assay: Test C preemergence; format: in vivo, Brassica napus
Summary of the method: as §1

[6] = system: nutsedge, yellow; assay: Test C postemergence; format: in vivo, Cyperus esculentus; settings: for Plant response rating (scale of 0 to 100 where 0 is no effect and 100 is complete control), Nutsedge, Yellow: Postemergence, 31 g ai/ha, visually evaluated after 13 to 15 days; for Nutsedge, Yellow plant response rating / Plant response rating, Nutsedge, Yellow: postemergence; for Nutsedge, Yellow plant response rating: 62 g ai/ha, scale 0 to 100
Summary of the method: as §1

[7] = system: barnyardgrass; assay: Test A postemergence; format: in vivo, Echinochloa crus-galli
Summary of the method: as §2

[8] = system: morningglory; assay: Test C preemergence; format: in vivo, Ipomoea coccinea
Summary of the method: as §1

[9] = system: barnyardgrass; assay: Test C preemergence; format: in vivo, Echinochloa crus-galli; settings: preemergence; for Plant response rating, Barnyardgrass: 125 g ai/ha, scale 0 to 100, 0 = no effect, 100 = complete control
Summary of the method: as §1

[10] = system: velvetleaf; assay: Test C preemergence; format: in vivo, Abutilon theophrasti
Summary of the method: as §1

[11] = system: rice; assay: Test B flood; format: in vivo, Oryza sativa; settings: 250 g ai/ha, visual rating on 0 to 100 scale (0 no effect, 100 complete control), 13 to 15 days
Summary of the method: as §3

[12] = system: crabgrass, large; assay: Test A preemergence; format: in vivo, Digitaria sanguinalis; settings: preemergence; for Crabgrass, Large plant response rating (0 to 100 scale): 125 g ai/ha, visual injury approx. 10 days after treatment; for Crabgrass, Large plant response rating: 500 g ai/ha, visual injury after approx. 10 days, 0 to 100 scale (0 no effect, 100 complete control)
Summary of the method: as §2

[13] = system: chickweed; assay: Test C postemergence; format: in vivo, Stellaria media; settings: for Plant response rating (scale of 0 to 100 where 0 is no effect and 100 is complete control), Chickweed: Postemergence, 31 g ai/ha, visually evaluated after 13 to 15 days; for Chickweed plant response rating / Plant response rating, Chickweed: postemergence; for Chickweed plant response rating: 62 g ai/ha, scale 0 to 100
Summary of the method: as §1

[14] = preemergence, 31 g ai/ha, visual rating, scale 0 to 100 (0 no effect, 100 complete control), 13 to 15 days
[15] = preemergence, 62 g ai/ha, scale 0 to 100 (0 no effect, 100 complete control), 13 to 15 days
[16] = preemergence, 125 g ai/ha, 13 to 15 days, scale 0 to 100, 0 = no effect, 100 = complete control
[17] = preemergence, 250 g ai/ha, scale 0 to 100, 0 is no effect, 100 is complete control
[18] = 125 g ai/ha, 0 to 100 scale, 0 no effect, 100 complete control
[19] = 500 g ai/ha, 0 to 100 scale (0 no effect, 100 complete control)
[20] = 250 g ai/ha, scale 0 to 100 (0 no effect, 100 complete control)
[21] = 125 g ai/ha, scale 0 to 100, 0 no effect, 100 complete control
[22] = Postemergence, 500 g ai/ha, 0 to 100 scale (0 no effect, 100 complete control)
[23] = postemergence, 125 g ai/ha, about 10 days, visual rating on 0 to 100 scale (0 no effect, 100 complete control)
[24] = 31 g ai/ha, visual rating, scale 0 to 100 (0 no effect, 100 complete control), 13 to 15 days
[25] = 62 g ai/ha, scale 0 to 100 (0 no effect, 100 complete control), 13 to 15 days
[26] = 250 g ai/ha, scale 0 to 100, 0 is no effect, 100 is complete control
[27] = Postemergence, 125 g ai/ha, 0 to 100 scale, 0 no effect, 100 complete control
[28] = Preemergence, rate head not shown (block before 16 g ai/ha), scale 0 to 100

| Compound | Nutsedge, Yellow plant response rating [1, 15] | Plant response rating, Nutsedge, Yellow [1, 16] | Nutsedge, Yellow plant response rating [1, 17] | Crabgrass, Large plant response rating [2, 15] | Plant response rating, Crabgrass, Large [2, 16] | Crabgrass, Large plant response rating [2, 17] | Morningglory plant response rating [3, 18] | Morningglory plant response rating [3, 19] | Plant response rating, Ducksalad [4] | Oilseed Rape plant response rating [5, 15] | Plant response rating, Oilseed Rape [5, 16] | Oilseed Rape plant response rating [5, 17] | Plant response rating (scale of 0 to 100 where 0 is no effect and 100 is complete control), Nutsedge, Yellow [6] | Nutsedge, Yellow plant response rating [6] | Plant response rating, Nutsedge, Yellow [6, 20] | Plant response rating, Nutsedge, Yellow [6, 21] | Barnyardgrass plant response rating [7, 22] | Morningglory plant response rating [8, 15] | Plant response rating, Morningglory [8, 16] | Morningglory plant response rating [8, 17] | also measured |
| --- | --- | --- | --- | --- | --- | --- | --- | --- | --- | --- | --- | --- | --- | --- | --- | --- | --- | --- | --- | --- | --- |
| CCCc1cc(C(=O)NC(C)C)nn1Cc1cc(C(F)(F)F)nn1C [Compound 201] | 20 | 55 | 80 | 100 | 100 | 100 | 90 | 100 | 95 | 100 | 100 | 95 | 10 | 10 | 10 | 5 | 100 | 100 | 100 | 100 | Nutsedge, Yellow plant response rating [1, 14]: 5; Crabgrass, Large plant response rating [2, 14]: 100; Oilseed Rape plant response rating [5, 14]: 100; Barnyardgrass plant response rating [7, 23]: 80; Morningglory plant response rating [8, 14]: 85; Barnyardgrass plant response rating [9, 24]: 98; Barnyardgrass plant response rating [9, 25]: 100; Plant response rating, Barnyardgrass ([9]; 13 to 15 days): 100; Barnyardgrass plant response rating [9, 26]: 100; Velvetleaf plant response rating [10, 14]: 90; Velvetleaf plant response rating [10, 15]: 100; Plant response rating, Velvetleaf [10, 16]: 100; Velvetleaf plant response rating [10, 17]: 100; Plant response rating, Rice [11]: 45; Crabgrass, Large plant response rating (0 to 100 scale) [12]: 100; Crabgrass, Large plant response rating [12]: 100; Plant response rating (scale of 0 to 100 where 0 is no effect and 100 is complete control), Chickweed [13]: 75; Chickweed plant response rating [13]: 80; Plant response rating, Chickweed [13, 20]: 85; Plant response rating, Chickweed [13, 21]: 85 |
| CCCc1cc(C(=O)NC2CC2)nn1Cc1cc(C(F)(F)F)nn1C [Compound 202] | 5 | 30 | 50 | 100 | 100 | 100 | 70 | 90 | 95 | 100 | 100 | 100 | 0 | 5 | 20 | 10 | 100 | 100 | 100 | 100 | Nutsedge, Yellow plant response rating [1, 14]: 0; Crabgrass, Large plant response rating [2, 14]: 100; Oilseed Rape plant response rating [5, 14]: 100; Barnyardgrass plant response rating [7, 23]: 90; Morningglory plant response rating [8, 14]: 90; Barnyardgrass plant response rating [9, 24]: 95; Barnyardgrass plant response rating [9, 25]: 100; Plant response rating, Barnyardgrass ([9]; 13 to 15 days): 100; Barnyardgrass plant response rating [9, 26]: 100; Velvetleaf plant response rating [10, 14]: 60; Velvetleaf plant response rating [10, 15]: 100; Plant response rating, Velvetleaf [10, 16]: 100; Velvetleaf plant response rating [10, 17]: 100; Plant response rating, Rice [11]: 30; Crabgrass, Large plant response rating (0 to 100 scale) [12]: 100; Crabgrass, Large plant response rating [12]: 100; Plant response rating (scale of 0 to 100 where 0 is no effect and 100 is complete control), Chickweed [13]: 75; Chickweed plant response rating [13]: 80; Plant response rating, Chickweed [13, 20]: 85; Plant response rating, Chickweed [13, 21]: 80 |
| CCc1cc(C(=O)NCC(F)(F)F)nn1Cc1ccnc(SC(F)(F)F)c1 [Compound 214] | 55 | 65 | 65 | 100 | 100 | 100 | 80 | 100 | 90 | 95 | 95 | 95 | 0 | 10 | 5 | 5 | 100 | 98 | 100 | 100 | Nutsedge, Yellow plant response rating [1, 14]: 25; Crabgrass, Large plant response rating [2, 14]: 100; Oilseed Rape plant response rating [5, 14]: 80; Barnyardgrass plant response rating [7, 27]: 100; Morningglory plant response rating [8, 14]: 25; Barnyardgrass plant response rating [9, 24]: 40; Barnyardgrass plant response rating [9, 25]: 95; Plant response rating, Barnyardgrass ([9]; 13 to 15 days): 100; Barnyardgrass plant response rating [9, 26]: 100; Velvetleaf plant response rating [10, 14]: 35; Velvetleaf plant response rating [10, 15]: 100; Plant response rating, Velvetleaf [10, 16]: 100; Velvetleaf plant response rating [10, 17]: 100; Plant response rating, Rice [11]: 60; Crabgrass, Large plant response rating (0 to 100 scale) [12]: 100; Crabgrass, Large plant response rating [12]: 100; Plant response rating (scale of 0 to 100 where 0 is no effect and 100 is complete control), Chickweed [13]: 50; Chickweed plant response rating [13]: 55; Plant response rating, Chickweed [13, 20]: 85; Plant response rating, Chickweed [13, 21]: 70 |
| CCc1cc(C(=O)NC2CC2)nn1Cc1ccnc(Br)c1 [Compound 220] | 0 | 5 | 5 | 100 | 100 | 100 | 50 | 100 | 65 | 30 | 85 | 95 | 0 | 0 | 10 | 40 | 100 | 5 | 65 | 75 | Plant response rating, Nutsedge, Yellow [1, 28]: 0; Plant response rating, Crabgrass, Large [2, 28]: 95; Plant response rating, Oilseed Rape [5, 28]: 80; Barnyardgrass plant response rating [7, 27]: 80; Plant response rating, Morningglory [8, 28]: 0; Barnyardgrass plant response rating [9, 24]: 0; Barnyardgrass plant response rating [9, 25]: 15; Plant response rating, Barnyardgrass ([9]; 13 to 15 days): 35; Barnyardgrass plant response rating [9, 26]: 95; Plant response rating, Velvetleaf [10, 28]: 5; Velvetleaf plant response rating [10, 15]: 20; Plant response rating, Velvetleaf [10, 16]: 75; Velvetleaf plant response rating [10, 17]: 100; Plant response rating, Rice [11]: 15; Crabgrass, Large plant response rating (0 to 100 scale) [12]: 100; Crabgrass, Large plant response rating [12]: 100; Plant response rating (scale of 0 to 100 where 0 is no effect and 100 is complete control), Chickweed [13]: 50; Chickweed plant response rating [13]: 55; Plant response rating, Chickweed [13, 20]: 80; Plant response rating, Chickweed [13, 21]: 60 |
